Experimental data: ChEMBL document CHEMBL1140483, “High dopamine transporter selectivity can be displayed by remarkably simple non-nitrogen containing inhibitors” (Bioorg Med Chem Lett, 2007)

Experiments:
[1] = species on record: Homo sapiens; assay: Selectivity for human DAT over human SERT
[2] = species on record: Homo sapiens; assay: Selectivity for human DAT over human NET
[3] = biological target: Sodium-dependent serotonin transporter (Homo sapiens, UniProt P31645); assay: Displacement of [125I]RTI55 from human SERT transfected in COS1 cells; format: cell-based, COS-1
Sequence of Sodium-dependent serotonin transporter (P31645 whole entry): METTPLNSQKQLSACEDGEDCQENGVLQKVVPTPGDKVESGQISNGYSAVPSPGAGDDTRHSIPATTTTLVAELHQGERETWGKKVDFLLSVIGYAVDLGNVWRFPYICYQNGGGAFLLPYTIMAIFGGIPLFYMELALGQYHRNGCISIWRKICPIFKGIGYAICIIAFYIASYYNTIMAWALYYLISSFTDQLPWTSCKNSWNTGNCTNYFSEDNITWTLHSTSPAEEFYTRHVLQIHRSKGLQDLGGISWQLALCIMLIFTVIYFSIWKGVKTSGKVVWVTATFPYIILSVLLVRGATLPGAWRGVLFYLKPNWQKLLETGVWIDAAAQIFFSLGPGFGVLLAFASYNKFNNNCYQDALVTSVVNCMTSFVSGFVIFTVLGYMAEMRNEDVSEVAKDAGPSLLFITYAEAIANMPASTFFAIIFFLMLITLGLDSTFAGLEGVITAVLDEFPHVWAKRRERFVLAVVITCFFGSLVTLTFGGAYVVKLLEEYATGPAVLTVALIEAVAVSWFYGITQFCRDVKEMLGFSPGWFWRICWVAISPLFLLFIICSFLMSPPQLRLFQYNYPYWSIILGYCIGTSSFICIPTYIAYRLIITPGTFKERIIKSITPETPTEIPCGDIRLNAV

[4] = biological target: Sodium-dependent dopamine transporter (Homo sapiens, UniProt Q01959); assay: Displacement of [125I]RTI55 from human DAT transfected in COS1 cells; format: cell-based, COS-1
Sequence of Sodium-dependent dopamine transporter (Q01959 whole entry): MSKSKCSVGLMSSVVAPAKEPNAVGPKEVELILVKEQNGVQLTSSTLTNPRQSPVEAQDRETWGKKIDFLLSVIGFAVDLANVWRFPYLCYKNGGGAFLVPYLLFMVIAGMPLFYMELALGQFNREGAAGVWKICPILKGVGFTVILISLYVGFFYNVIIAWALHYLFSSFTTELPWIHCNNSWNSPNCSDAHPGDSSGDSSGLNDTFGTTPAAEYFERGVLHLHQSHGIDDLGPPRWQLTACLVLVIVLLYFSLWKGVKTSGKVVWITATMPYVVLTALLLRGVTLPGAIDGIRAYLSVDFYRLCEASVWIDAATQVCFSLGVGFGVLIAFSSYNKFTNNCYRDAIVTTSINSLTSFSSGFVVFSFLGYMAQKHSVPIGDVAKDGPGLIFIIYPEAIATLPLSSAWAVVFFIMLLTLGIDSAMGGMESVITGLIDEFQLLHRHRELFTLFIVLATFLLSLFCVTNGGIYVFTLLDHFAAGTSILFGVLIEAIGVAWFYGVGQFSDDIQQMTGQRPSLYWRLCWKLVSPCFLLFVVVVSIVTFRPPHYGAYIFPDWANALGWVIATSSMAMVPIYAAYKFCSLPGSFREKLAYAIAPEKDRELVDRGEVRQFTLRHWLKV

[5] = biological target: Sodium-dependent noradrenaline transporter (Homo sapiens, UniProt P23975); assay: Displacement of [125I]RTI55 from human NET transfected in COS1 cells; format: cell-based, COS-1
Sequence of Sodium-dependent noradrenaline transporter (P23975 whole entry): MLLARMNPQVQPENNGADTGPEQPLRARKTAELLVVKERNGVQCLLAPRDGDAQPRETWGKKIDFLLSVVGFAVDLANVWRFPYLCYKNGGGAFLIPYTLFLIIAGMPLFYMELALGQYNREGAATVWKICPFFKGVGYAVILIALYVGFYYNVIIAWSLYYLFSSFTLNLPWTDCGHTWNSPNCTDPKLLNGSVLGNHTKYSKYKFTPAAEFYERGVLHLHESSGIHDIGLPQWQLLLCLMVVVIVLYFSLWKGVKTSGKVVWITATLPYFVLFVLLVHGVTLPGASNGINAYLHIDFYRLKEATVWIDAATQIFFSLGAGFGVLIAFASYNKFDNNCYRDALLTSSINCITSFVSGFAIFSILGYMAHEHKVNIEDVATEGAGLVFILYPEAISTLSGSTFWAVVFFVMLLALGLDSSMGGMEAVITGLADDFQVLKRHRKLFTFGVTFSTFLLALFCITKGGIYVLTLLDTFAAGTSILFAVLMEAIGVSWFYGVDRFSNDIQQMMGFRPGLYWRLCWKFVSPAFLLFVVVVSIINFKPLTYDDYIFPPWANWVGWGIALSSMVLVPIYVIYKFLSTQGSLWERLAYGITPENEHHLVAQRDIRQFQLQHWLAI

`COC(=O)C1=C(c2ccc(Cl)c(Cl)c2)CCC1` showed a Ratio Ki [1] of 410 and a Ratio Ki [2] of 6.

Work on `Cc1ccccc1OC(=O)C1=C(c2ccc(Cl)c(Cl)c2)CCC1` yielded a Ki [3] greater than 500 µM, a Ratio Ki [1] greater than 2300 and a Ki [4] of 0.22 µM. The Ki [5] was 33 µM and the Ratio Ki [2] was 150.

With `O=C(NC1CCC1)C1=C(c2ccc(Cl)c(Cl)c2)CCC1` the Ki [3] was greater than 1000 µM, the Ratio Ki [1] was greater than 110 and the Ki [4] was 9 µM. It also gave a Ki [5] of 50 µM and a Ratio Ki [2] of 5.6.

With `CON(C)C(=O)C1=C(c2ccc(Cl)c(Cl)c2)CCC1` the Ki [3] was 540 µM, the Ratio Ki [1] was 84 and the Ki [4] was 6.4 µM. The Ki [5] was 250 µM and the Ratio Ki [2] was 39.

`O=C(OC1CCCCC1)C1=C(c2ccc(Cl)c(Cl)c2)CCC1` was tested, and the Ki [3] was greater than 1000 µM, the Ratio Ki [1] was greater than 83 and the Ki [4] was 12 µM. The Ki [5] was 130 µM and the Ratio Ki [2] was 11.

With `CCN(CC)C(=O)C1=C(c2ccc(Cl)c(Cl)c2)CCC1` the Ki [3] was 300 µM, the Ratio Ki [1] was 3.2 and the Ki [4] was 94 µM. For the same molecule, the Ki [5] was 210 µM and the Ratio Ki [2] was 2.2.

Work on `Cc1cccc(OC(=O)C2=C(c3ccc(Cl)c(Cl)c3)CCC2)c1` yielded a Ki [3] greater than 1000 µM, a Ratio Ki [1] greater than 17000 and a Ki [4] of 0.06 µM. For the same molecule, the Ki [5] was greater than 100 µM and the Ratio Ki [2] was greater than 1700.

`CONC(=O)C1=C(c2ccc(Cl)c(Cl)c2)CCC1` showed a Ki [3] greater than 500 µM, a Ratio Ki [1] greater than 600 and a Ki [4] of 0.83 µM. The Ki [5] was 9.2 µM and the Ratio Ki [2] was 11.

`O=C(C1=C(c2ccc(Cl)c(Cl)c2)CCC1)N1CCOCC1` gave a Ki [3] greater than 500 µM, a Ratio Ki [1] greater than 45 and a Ki [4] of 11 µM. The Ki [5] was 300 µM and the Ratio Ki [2] was 27.

`O=C(OCCF)C1=C(c2ccc(Cl)c(Cl)c2)CCC1` showed a Ki [3] of 390 µM, a Ratio Ki [1] of 780 and a Ki [4] of 0.5 µM. The Ki [5] was 5.8 µM and the Ratio Ki [2] was 12.

`O=C(Oc1ccccc1)C1=C(c2ccc(Cl)c(Cl)c2)CCC1` gave a Ki [3] greater than 500 µM, a Ratio Ki [1] greater than 2900 and a Ki [4] of 0.17 µM. The Ki [5] was 85 µM and the Ratio Ki [2] was 500.

`O=C(OCCO)C1=C(c2ccc(Cl)c(Cl)c2)CCC1` gave a Ki [3] of 50 µM, a Ratio Ki [1] of 170 and a Ki [4] of 0.3 µM. It also gave a Ki [5] of 9 µM and a Ratio Ki [2] of 30.

`O=C(OCc1ccco1)C1=C(c2ccc(Cl)c(Cl)c2)CCC1` gave a Ki [3] of 24 µM, a Ratio Ki [1] of 16 and a Ki [4] of 1.5 µM. The Ki [5] was 61 µM and the Ratio Ki [2] was 41.

Molecule `O=C(OCc1cccs1)C1=C(c2ccc(Cl)c(Cl)c2)CCC1` has a Ki [3] of 910 µM, a Ratio Ki [1] of 2300 and a Ki [4] of 0.4 µM. For the same molecule, the Ki [5] was 42 µM and the Ratio Ki [2] was 110.

`O=C(NCc1cccs1)C1=C(c2ccc(Cl)c(Cl)c2)CCC1` showed a Ki [3] of 110 µM, a Ratio Ki [1] of 790 and a Ki [4] of 0.14 µM. The Ki [5] was 18 µM and the Ratio Ki [2] was 130.

For `O=C(NCCF)C1=C(c2ccc(Cl)c(Cl)c2)CCC1`, the Ki [3] was greater than 500 µM, the Ratio Ki [1] was greater than 7100 and the Ki [4] was 0.07 µM. It also gave a Ki [5] of 8 µM and a Ratio Ki [2] of 110.

`O=C(OCC(F)(F)F)C1=C(c2ccc(Cl)c(Cl)c2)CCC1` gave a Ki [3] greater than 1000 µM, a Ki [4] of 3.4 µM and a Ki [5] of 170 µM. The Ratio Ki [2] was 50.

With `CC(C)OC(=O)C1=C(c2ccc(Cl)c(Cl)c2)CCC1` the Ki [3] was 500 µM, the Ratio Ki [1] was 190 and the Ki [4] was 2.6 µM. It also gave a Ki [5] of 26 µM and a Ratio Ki [2] of 10.

With `O=C(C1=C(c2ccc(Cl)c(Cl)c2)CCC1)N1CCCC1` the Ki [3] was 520 µM, the Ratio Ki [1] was 9 and the Ki [4] was 58 µM. It also gave a Ki [5] of 410 µM and a Ratio Ki [2] of 7.

`O=C(NCc1ccco1)C1=C(c2ccc(Cl)c(Cl)c2)CCC1` gave a Ki [3] of 24 µM, a Ratio Ki [1] of 800 and a Ki [4] of 0.03 µM. For the same molecule, the Ki [5] was 12 µM and the Ratio Ki [2] was 400.
